ChEMBL document CHEMBL3877294, “Discovery of Ruzasvir (MK-8408): A Potent, Pan-Genotype HCV NS5A Inhibitor with Optimized Activity against Common Resistance-Associated Polymorphisms” (J Med Chem, 2017)

Legend:
[1] = system: Nonstructural protein 5A (Hepatitis C virus), Q5L478 [UNDEFINED MUTATION]; test: Inhibition of HCV genotype-1a NS5A L31V mutant infected in human HuH7 cells by luciferase reporter gene assay; format: cell-based; conditions: Hepatitis C virus subtype 1a; Huh-7
[2] = Plasma clearance in rhesus monkey at 1 mg/kg, iv measured after 48 hrs by LC/MS/MS method; format: ADME, organism-based, Macaca mulatta
[3] = system: T1, Nonstructural protein 5A (Hepatitis C virus), Q5L478 [Y93H]; test: Inhibition of HCV genotype-1a NS5A Y93H mutant infected in human HuH7 cells by luciferase reporter gene assay; format: cell-based; conditions: Hepatitis C virus subtype 1a; Huh-7
T1 sequence (whole entry): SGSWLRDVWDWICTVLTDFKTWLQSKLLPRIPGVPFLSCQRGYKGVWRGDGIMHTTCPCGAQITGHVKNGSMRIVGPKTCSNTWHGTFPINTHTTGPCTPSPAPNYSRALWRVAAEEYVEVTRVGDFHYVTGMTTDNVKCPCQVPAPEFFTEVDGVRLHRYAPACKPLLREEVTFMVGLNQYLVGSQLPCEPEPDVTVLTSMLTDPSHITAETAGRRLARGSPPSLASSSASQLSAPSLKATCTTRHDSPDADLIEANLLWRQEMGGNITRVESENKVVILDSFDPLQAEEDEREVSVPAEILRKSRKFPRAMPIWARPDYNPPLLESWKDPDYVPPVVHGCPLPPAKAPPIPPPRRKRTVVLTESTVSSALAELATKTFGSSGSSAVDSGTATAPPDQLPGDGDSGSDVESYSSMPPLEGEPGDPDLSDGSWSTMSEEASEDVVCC

[4] = Oral bioavailability in rhesus monkey at 5 mg/kg measured at 48 hrs post dose by LC/MS/MS method; format: ADME, organism-based, Macaca mulatta; conditions: in vivo
Huh-7 [5] = test: Inhibition of HCV genotype-3a NS5A infected in human HuH7 cells by luciferase reporter gene assay; format: cell-based; conditions: Hepatitis C virus subtype 3a
Huh-7 [6] = test: Inhibition of HCV genotype-2b NS5A harboring methionine at position 31 infected in human HuH7 cells by luciferase reporter gene assay; format: cell-based; conditions: Hepatitis C virus subtype 2b
[7] = Half life in rhesus monkey at 1 mg/kg, iv by LC/MS/MS method; format: ADME, organism-based, Macaca mulatta; conditions: in vivo
Huh-7 [8] = test: Inhibition of HCV genotype-1a NS5A infected in human HuH7 cells by luciferase reporter gene assay; format: cell-based; conditions: Hepatitis C virus subtype 1a
[9] = AUC (0 to t) in rhesus monkey at 5 mg/kg, po measured after 48 hrs by LC/MS/MS method; format: ADME, organism-based, Macaca mulatta; set-up: dose 5 mg/kg, time < 48 hr, route oral; conditions: in vivo

SMILES: COC(=O)N[C@H](C(=O)N1CCC[C@H]1c1ncc(-c2cc(F)c3c(c2)OC(c2cc(C(C)C)no2)n2c-3cc3cc(-c4cnc([C@@H]5CCCN5C(=O)[C@@H](NC(=O)OC)C(C)C)[nH]4)ccc32)[nH]1)C(C)C (some centres undefined)
- EC90 [1]: 0.056 nM
- clearance [2]: 2.2 mL/min/kg
- EC90 [3]: 0.42 nM
- bioavailability [4]: 10%
- EC90 (Huh-7 [5]): 0.019 nM
- EC90 (Huh-7 [6]): 0.92 nM
- half-life [7]: 10.2 h
- EC90 (Huh-7 [8]): 0.002 nM
- AUC(0-t) at 48 h [9]: 3.9 µM·h
